How the values were obtained:
RIF-1 tumors [1] = test: Tumor oxygen by EPR oximetry at different irradiances; format: in vivo, mice; settings: light 3 hours post-injection
Experimental: Tumor oxygen changes were measured in mice treated either with aminolevulinic acid-induced protoporphyrin IX (ALA-PPIX) or verteporfin. Using electron paramagnetic resonance (EPR) oximetry described in Example 1, two irradiance levels were performed three hours post-injection of verteporfin or ALA-PPIX. Irradiance levels for ALA-PPIX were 30 mW/cm^2 and 150 mW/cm^2, whereas 50 mW/cm^2 and 200 mW/cm^2 were used for verteporfin.
EPR oximetry measured tumor oxygenation in RIF-1 tumor cells and in tumorigenic mice treated with photodynamic therapy, using synthetic lithium phthalocyanine (LiPc) as the oxygen-sensitive EPR material. Small particles between 50 and 200 μm in size were implanted into the animal tumors by 23-gauge needle at a depth of 1-3 mm within the tumor. Injections of LiPc were performed at least 24 hours prior to photodynamic therapy. Mice were placed in an L-band (1.2 GHz) EPR spectrometer with a microwave bridge that was custom-built for small animal experiments involving measurement of tissue pO2. Each mouse was anesthetized and placed in the EPR resonator for continuous measurement of the tumor tissue pO2 in 15-minute intervals. The external loop resonator was positioned over the tumor to record the EPR signal of injected LiPc within the tissue. Line widths of the EPR signal were converted to pO2 using a calibration curve determined for LiPc. The data were fit with a software program to match the Voigt line shape after the line widths were graphed as a function of time before, during, and after treatment.

RIF-1 tumors [2] = test: Tumor pO2 by Eppendorf electrode after ALA photodynamic therapy; format: in vivo, mice
Experimental: To independently confirm the results described above in ALA-PPIX-treated animals, Eppendorf pO2 electrode measurements were performed in the same tumor model. Two sections of animals with tumors were irradiated for 45 minutes. The first group of animals received ALA-injections 3 hours prior to light irradiation at a concentration of 100 mg/kg, and the second group received light alone. The light was at a wavelength of 633 nm, at a fluence of 150 mW/cm^2. Measurements were taken from the tumors immediately after the light was turned off. […] Collected data were pooled from three tracks in each animal with seven control animals (FIG. 7A) and 6 treated animals (FIG. 7B). The median pO2 for the control group was 3.7 mm Hg, while the median for the treated group was 8.7 mm Hg. Clearly, significant increases in tumor oxygenation occurred after treatment.

With `NCC(=O)CCC(=O)O` [ALA, 5-aminolevulinic acid] the “tumor pO2 levels during treatment, low irradiance” value (RIF-1 tumors [1]; 50 mW/cm^2 verteporfin, 30 mW/cm^2 ALA-PPIX) was “remained the same”, the “tumor pO2 levels during treatment, high irradiance” value (RIF-1 tumors [1]; 200 mW/cm^2 verteporfin, 150 mW/cm^2 ALA-PPIX) was “a measurable drop in oxygen” and the “median tumor pO2 immediately after light” value (RIF-1 tumors [2]; 100 mg/kg ALA 3 hours prior to 633 nm light, 150 mW/cm^2 for 45 minutes, light-only control median 3.7) was 8.7 mm Hg. The “increase in tumor oxygenation” value (RIF-1 tumors [2]; EPR oximetry and Eppendorf electrode, treated vs control) was “more than two-fold increases”.
